Reference: US20250223281A1, “ANTIDIABETIC COMPOUNDS AND COMPOSITIONS” (REZUBIO PHARMACEUTICALS CO., LTD, priority 2022, published 2025)

Biological target: T1, GPR40 (Homo sapiens, UniProt O14842)
T1 construct: expressed in transfected cells; host or cells: HEK293 cells stably expressing GPR40 (Hygromycin selection)
Assay: IP1 accumulation assay in HEK293 cells stably expressing GPR40
Format: cell-based
Procedure: IP1 accumulation assay was used to evaluate the potency of compounds. HEK293 cells stably expressing GPR40 were cultured in 5% CO2 incubator (ThermoFisher) in maintenance media (Dulbecco's modified Eagle's medium with 4.5 g/L of glucose, 10% fetal bovine serum, 100 μg/mL Hygromycin, and Penicillin (100 U/mL)/Streptomycin (100 μg/mL)) till 100% confluency. Cells were harvested freshly, spun down at 300×g for 5 min, and resuspended in pre-warmed 1× stimulant buffer from Cisbio IP-One HTRF Detection kit (Cisbio). Cell density was adjusted to 2.0×10^6 cells/mL. DMSO was used as blank control and AMG-1638 (CAS #: 1142214-62-7) as positive control. Compounds were prepared at 10 mM in DMSO and 5 nL of 3× serially diluted compounds (10 concentrations) were added to each well of the 384-LDV assay plate (Corning) by using ECHO 550 (Labcyte). Five μL of cells in suspension were transferred into each well by using Multidrop Combi Reagent Dispenser (ThermoFisher). Assay plate was then sealed and incubated at 37° C. for 2 hours. IP-d2 reagent and anti-IP1 reagent were prepared following the manual (Cisbio). Five μL of IP1-d2 and then 5 μL of anti-IP1 antibody was added to each well sequentially. Assay plate was incubated at room temperature for 60 min and then read at 665 nm/615 nm on an Envision plate reader (PerkinElmer). The ratio of values obtained at 665 nm and 615 nm was used for calculation of IP1 accumulation: % Effect=(Ratiosample−Ratioblank)/(RatioAMG-1638−Ratioblank)×100. Dose curve was fitted and EC50 of each compound was calculated by using XLFit.

[1] = IP1 accumulation, HEK293 cells stably expressing GPR40, 2 hours at 37° C., % effect relative to AMG-1638, table of Biological Example 1
[2] = Tables A-1a to A-7b (structure-property relationship), obtained by methods of Biological Example 1
[3] = Table A-8 (additional examples), obtained by methods of Biological Example 1

T1 sequence (O14842 whole entry): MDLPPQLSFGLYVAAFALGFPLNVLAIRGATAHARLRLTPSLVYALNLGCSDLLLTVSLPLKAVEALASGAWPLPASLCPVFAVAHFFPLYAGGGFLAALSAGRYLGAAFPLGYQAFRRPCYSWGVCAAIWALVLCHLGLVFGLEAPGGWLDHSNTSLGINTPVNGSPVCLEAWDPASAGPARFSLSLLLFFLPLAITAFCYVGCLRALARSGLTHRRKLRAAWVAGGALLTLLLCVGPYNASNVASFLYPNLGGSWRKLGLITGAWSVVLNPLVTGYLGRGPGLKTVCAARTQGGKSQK

SMILES	EC50 [1] [nM]	EC50 [2] [nM]	EC50 [3] [nM]
C[C@H](C(=O)O)[C@H](c1ccc2c(c1)O[C@@H](C1CCN(Cc3cc(-n4cc(COCCOCCOCC(=O)NCC[N+](C)(CCC(=O)NCCN)CCC(=O)NCCN)nn4)ccc3OC(F)(F)F)CC1)CC2)C1CC1 [Example 174]	> 10000	–	> 10000
COc1ccc(F)c(-c2ccc(COc3cccc([C@@H](CC(=O)O)C4CC4)c3)cc2OC(C)(C)Cn2cc(CCCCCCCCCCCCC(=O)NCCN(CCC(=O)NCCN)CCC(=O)NCCN)nn2)c1 [Example 29]	> 1000	–	–
COc1ccc(F)c(-c2ccc(COc3cccc([C@@H](CC(=O)O)C4CC4)c3)cc2OC(C)(C)Cn2cc(CCCCCCCCCCCCCC(=O)NCCN(CCC(=O)NCCN)CCC(=O)NCCN)nn2)c1 [Example 88]	22.8	–	–
COc1ccc(C(=O)N(CC(C)(C)CCn2cc(COCCOCCOCCOCCOCC(=O)NCC[N+](C)(CCC(=O)NCCN)CCC(=O)NCCN)nn2)c2cccc(C)n2)c(N2CCC(c3cc4ccc([C@@H](CC(=O)O)C5CC5)cc4o3)CC2)c1 [Example 178]	2030	–	–
COc1ccc(C(=O)N(CC(C)(C)CCn2cc(CCCCCCCCC(=O)NCC[N+](C)(CCC(=O)NCCN)CCC(=O)NCCN)nn2)c2cccc(C)n2)c(N2CCC(COc3cc([C@@H](CC(=O)O)C4CC4)ccn3)CC2)c1 [Example 111]	307	307	–
COc1ccc(C(=O)N(CC(C)(C)CCn2cc(COCCOCCOCCOCCOCC(=O)NCC[N+](C)(CCC(=O)NCCN)CCC(=O)NCCN)nn2)c2cccc(C)n2)c(N2CCC(COc3cc([C@@H](CC(=O)O)C4CC4)ccn3)CC2)c1 [Example 164]	1330	–	1330
COc1ccc(F)c(-c2ccc(COc3cccc([C@@H](CC(=O)O)C4CC4)c3)cc2CC(C)(C)Cn2cc(CCCCCCCCCCCCCC(=O)NCC[N+](C)(CCC(=O)NCCN)CCC(=O)NCCN)nn2)c1 [Example 57]	63.1	93.1	–
CCCCCOC(=O)CCCCCCCCCCCCCCCCCc1cn(CC(C)(C)Cc2cc(COc3cccc([C@@H](CC(=O)O)C4CC4)c3)ccc2-c2cc(OC)ccc2F)nn1 [Example 85]	> 1300	–	–
COc1ccc(F)c(-c2ccc(COc3cccc([C@@H](CC(=O)O)C4CC4)c3)cc2C(C)(C)c2cn(CCCCCCCCCCCCCCCC(=O)NCCN(CCC(=O)NCCN)CCC(=O)NCCN)nn2)c1 [Example 40]	25.3	–	–

These reach a lower EC50 [1]. Values come first.

EC50 [1] [nM]	EC50 [2] [nM]	EC50 [3] [nM]	SMILES
6.74	6.74	–	C[C@H](C(=O)O)[C@H](c1ccc2c(c1)O[C@@H](C1CCN(Cc3cc(-n4cc(CCCCCCCCCCCCCCC(=O)NCC[N+](C)(CCC(=O)NCCN)CCC(=O)NCCN)nn4)ccc3OC(F)(F)F)CC1)CC2)C1CC1 [Example 72]
5.42	–	–	COc1ccc(F)c(-c2ccc(COc3cccc([C@@H](CC(=O)O)C4CC4)c3)cc2CC(C)(C)Cn2cc(CCCCCCCCCCCCCCCCCC(=O)NCC[N+](C)(C)C)nn2)c1 [Example 38]
1.1	1.1	–	C[C@H](C(=O)O)[C@H](c1ccc2c(c1)O[C@@H](C1CCN(Cc3cc(-n4cc(CCCCCCCCCCCCCCCCCC(=O)NCCN(CCC(=O)NCCN)CCC(=O)NCCN)nn4)ccc3OC(F)(F)F)CC1)CC2)C1CC1 [Example 3]
1.04	–	–	COc1ccc(F)c(-c2ccc(COc3cccc([C@@H](CC(=O)O)C4CC4)c3)cc2CC(C)(C)Cn2cc(CCCCCCCCCCCCCCCCCC(=O)NCCCN(CC(=O)NCCN)CC(=O)NCCN)nn2)c1 [Example 154]
0.83	0.83	–	C[C@H](C(=O)O)[C@H](c1ccc2c(c1)O[C@@H](C1CCN(Cc3cc(-c4cn(CCCCCCCCCCCCCCCC(=O)NCCN(CCC(=O)NCCN)CCC(=O)NCCN)nn4)ccc3OC(F)(F)F)CC1)CC2)C1CC1 [Example 39]
0.74	0.74	–	C[C@H](C(=O)O)[C@H](c1ccc2c(c1)O[C@@H](C1CCN(Cc3cc(-c4cn(CCCCCCCCCCCCCCCC(=O)NCC[N+](C)(CCC(=O)NCCN)CCC(=O)NCCN)nn4)ccc3OC(F)(F)F)CC1)CC2)C1CC1 [Example 84]
0.44	–	–	COc1ccc(C(=O)N(CC(C)(C)CCCCCCn2cc(CCCCCCCCCCCCC(=O)NCCN(CC(=O)NCCN)CC(=O)NCCN)nn2)c2cccc(C)n2)c(N2CCC(COc3cc([C@@H](CC(=O)O)C4CC4)ccn3)CC2)c1 [Example 60]
